Reference: patent publication US20140243332A1, “METHODS OF TREATING CANCERS CHARACTERIZED BY ABERRENT ROS1 ACTIVITY” (Oregon Health & Science University, priority 2013, published 2014)
Blank lines part the entries; values can stand above or below the compound they belong to.

Legend:
PC9 cells = assay: Cell viability assay, PC9; format: cell-based, human; conditions: PC9 cells (activated EGFR), FIG. 6B
Description: (§1) IC50 was determined from non-linear regression curve fit analysis of the dose response curves.

HCC4011 cells = assay: Cell viability assay, HCC4011; format: cell-based, human; conditions: HCC4011 cells (activated EGFR), FIG. 6B
Description: as §1

Ba/F3 SLC-ROS cells = molecular target: T1, Ba/F3 SLC-ROS cells (Homo sapiens, UniProt P08922); assay: Apoptosis induction (Annexin V / 7-AAD), Ba/F3 SLC-ROS; format: cell-based; conditions: 15 nM, 48 hours
T1 construct: SLC-ROS-S (SLC-ROS) was cloned from cDNA made from HCC78 cells; fused on or other part: GFP is co-expressed from an IRES in pMIG and is not fused; O95436 (Sodium-dependent phosphate transport protein 2B)
T1 sequence (P08922 whole entry, change not shown, the tested form may be a part): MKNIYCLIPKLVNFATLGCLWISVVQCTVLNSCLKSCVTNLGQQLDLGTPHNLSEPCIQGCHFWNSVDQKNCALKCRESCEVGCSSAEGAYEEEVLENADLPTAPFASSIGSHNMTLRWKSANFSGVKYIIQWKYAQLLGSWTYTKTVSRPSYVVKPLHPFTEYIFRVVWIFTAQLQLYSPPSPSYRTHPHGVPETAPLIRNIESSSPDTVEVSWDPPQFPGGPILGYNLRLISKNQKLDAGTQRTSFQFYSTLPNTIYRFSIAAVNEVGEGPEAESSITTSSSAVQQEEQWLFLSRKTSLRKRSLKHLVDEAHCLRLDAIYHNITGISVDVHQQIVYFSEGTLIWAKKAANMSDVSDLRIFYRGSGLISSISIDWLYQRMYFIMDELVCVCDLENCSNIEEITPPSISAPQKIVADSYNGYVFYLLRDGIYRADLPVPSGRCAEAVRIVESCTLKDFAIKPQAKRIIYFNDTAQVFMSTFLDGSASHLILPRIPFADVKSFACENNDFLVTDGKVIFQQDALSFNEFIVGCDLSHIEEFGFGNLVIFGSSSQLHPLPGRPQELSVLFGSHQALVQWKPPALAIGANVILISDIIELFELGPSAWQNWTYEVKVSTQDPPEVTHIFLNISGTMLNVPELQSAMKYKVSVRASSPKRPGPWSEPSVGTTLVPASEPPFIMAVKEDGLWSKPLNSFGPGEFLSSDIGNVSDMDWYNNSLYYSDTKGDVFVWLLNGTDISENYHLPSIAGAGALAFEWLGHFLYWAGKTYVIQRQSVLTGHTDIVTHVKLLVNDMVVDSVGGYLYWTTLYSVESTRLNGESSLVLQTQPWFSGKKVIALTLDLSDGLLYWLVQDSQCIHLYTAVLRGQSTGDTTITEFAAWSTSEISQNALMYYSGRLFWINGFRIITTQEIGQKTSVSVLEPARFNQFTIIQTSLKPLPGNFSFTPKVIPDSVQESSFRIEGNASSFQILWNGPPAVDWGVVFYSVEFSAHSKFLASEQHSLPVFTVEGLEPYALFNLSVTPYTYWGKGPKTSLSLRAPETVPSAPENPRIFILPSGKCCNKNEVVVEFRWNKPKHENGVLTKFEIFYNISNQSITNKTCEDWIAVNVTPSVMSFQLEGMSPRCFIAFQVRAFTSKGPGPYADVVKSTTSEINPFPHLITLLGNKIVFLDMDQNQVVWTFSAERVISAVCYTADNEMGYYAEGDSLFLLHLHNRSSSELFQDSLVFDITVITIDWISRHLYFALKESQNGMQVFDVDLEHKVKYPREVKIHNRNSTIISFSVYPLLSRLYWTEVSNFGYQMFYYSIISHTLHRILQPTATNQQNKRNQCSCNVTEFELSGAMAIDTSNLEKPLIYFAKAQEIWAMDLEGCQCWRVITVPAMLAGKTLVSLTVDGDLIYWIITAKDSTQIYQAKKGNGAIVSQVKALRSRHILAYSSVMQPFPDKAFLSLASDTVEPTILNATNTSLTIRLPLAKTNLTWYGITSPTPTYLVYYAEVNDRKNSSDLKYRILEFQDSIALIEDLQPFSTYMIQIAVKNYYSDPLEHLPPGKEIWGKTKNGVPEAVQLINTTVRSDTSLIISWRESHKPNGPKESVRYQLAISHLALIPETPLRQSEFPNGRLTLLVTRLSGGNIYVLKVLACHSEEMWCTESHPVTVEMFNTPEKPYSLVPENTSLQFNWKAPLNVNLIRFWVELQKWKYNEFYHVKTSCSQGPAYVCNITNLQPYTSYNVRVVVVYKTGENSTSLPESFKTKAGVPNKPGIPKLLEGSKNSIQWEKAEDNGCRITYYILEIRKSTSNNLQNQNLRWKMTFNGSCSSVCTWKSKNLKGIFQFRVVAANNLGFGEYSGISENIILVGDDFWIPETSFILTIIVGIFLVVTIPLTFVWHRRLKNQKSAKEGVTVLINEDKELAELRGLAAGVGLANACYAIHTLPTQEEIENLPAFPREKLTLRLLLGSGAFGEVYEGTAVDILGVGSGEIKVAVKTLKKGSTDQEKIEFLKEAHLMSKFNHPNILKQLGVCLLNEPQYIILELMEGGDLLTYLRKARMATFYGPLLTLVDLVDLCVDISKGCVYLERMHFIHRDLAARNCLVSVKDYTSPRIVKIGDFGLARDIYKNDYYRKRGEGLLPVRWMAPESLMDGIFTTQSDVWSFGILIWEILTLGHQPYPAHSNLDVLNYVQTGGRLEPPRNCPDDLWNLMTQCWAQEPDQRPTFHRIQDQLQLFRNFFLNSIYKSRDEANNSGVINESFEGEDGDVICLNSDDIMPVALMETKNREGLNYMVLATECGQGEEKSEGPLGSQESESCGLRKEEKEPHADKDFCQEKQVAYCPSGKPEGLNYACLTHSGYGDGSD
Description: (§2) FIG. 5A is a set of three bar graphs depicting the induction of apoptosis in Ba/F3 FIG-ROS, Ba/F3 SLC-ROS and Ba/F3 ALK F1174L cells after 48 hours of treatment with the indicated doses of the indicated compounds. The number of cells that were Annexin V and 7-AAD positive after inhibitor treatment was normalized to number of cells staining positive with these markers with vehicle treatment (basal). A minimum of 2000 cells were counted per condition. Rate of apoptosis is shown as fold over basal. Basal apoptosis in Ba/F3 FIG-ROS, Ba/F3 SLC-ROS and Ba/F3 ALK F1174 cells was 3.6%, 2.8% and 1.2% respectively.

SLC-ROS = SLC-ROS (Homo sapiens, UniProt P08922); assay: Immunoblot of Ba/F3 SLC-ROS lysates; format: cell-based; set-up: SLC34A2 N-terminal portion, fusion partner; expressed in transfected cells; host or cells: Ba/F3 (A15), retroviral pMIG; the other entry of the earlier key: SLC34A2 (O95436, Sodium-dependent phosphate transport protein 2B); conditions: Ba/F3 SLC-ROS cells, increasing amounts, immunoblot FIG. 1C
Chain of SLC-ROS (P08922 with tags, fused parts or gaps): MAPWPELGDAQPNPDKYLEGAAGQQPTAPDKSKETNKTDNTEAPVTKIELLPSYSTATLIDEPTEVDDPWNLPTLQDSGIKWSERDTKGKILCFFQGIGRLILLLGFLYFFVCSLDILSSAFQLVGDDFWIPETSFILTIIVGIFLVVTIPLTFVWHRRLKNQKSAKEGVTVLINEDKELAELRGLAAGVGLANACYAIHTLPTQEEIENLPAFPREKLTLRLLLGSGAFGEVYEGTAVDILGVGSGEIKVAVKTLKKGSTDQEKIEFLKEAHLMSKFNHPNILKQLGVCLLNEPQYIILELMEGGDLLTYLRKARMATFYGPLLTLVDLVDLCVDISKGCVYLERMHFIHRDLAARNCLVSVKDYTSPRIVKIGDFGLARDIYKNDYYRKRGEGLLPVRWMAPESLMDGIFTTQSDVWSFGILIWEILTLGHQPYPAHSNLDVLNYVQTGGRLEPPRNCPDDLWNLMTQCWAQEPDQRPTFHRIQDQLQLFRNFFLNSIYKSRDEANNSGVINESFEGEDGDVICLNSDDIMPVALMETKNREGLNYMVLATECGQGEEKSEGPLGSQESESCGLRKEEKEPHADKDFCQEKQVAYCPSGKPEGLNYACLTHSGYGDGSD
Description: (§3) FIG. 1C is an image of an immunoblot of lysates of Ba/F3 FIG-ROS and Ba/F3 SLC-ROS and the indicated downstream effectors after treatment with the indicated compounds. Images shown are representative of three independent experiments.
(§4) Ba/F3 FIG-ROS, Ba/F3 SLC-ROS, HCC78 and mCC cell lines were treated with the indicated concentration of inhibitors for 1-2 hours. […] The protein content of the cell lysates was determined and lysates were either used for immunoprecipitation where indicated or extracted with SDS Sample buffer for 15 minutes at 80° C. Proteins were transferred to Immobilon-FL membranes and immunoblotted with antibodies specific for phospho-ROS1 (Cell Signaling Technology (CST) #3078), total ROS1 (CST #3266), phopsho-Shp2 (CST #3751), total Shpt (CST #3752), phospho-Stat3 (CST #9145), total Stat3 (CST #4904), phospho-Erk1/2 (CST #9101), total Erk2 (Santa Cruz #SC-1647), phospho-S6 (CST #4858), total S6 (CST #2216), phospho-Src (CST #2105), total Src (CST #2110), α-tubulin (Sigma T6199), or β-actin (Sigma A1978) as indicated. Images of the blots were generated by the LI-COR Odyssey® imaging system, following the manufacturer's protocol for immunoblot detection with use of IR-dye conjugated secondary antibodies.

Ba/F3 parental cells = assay: Cell viability (MTS) assay, Ba/F3 parental; format: cell-based; conditions: Mus musculus, BaF3; Ba/F3 parental cells; read-out: IC50 (insensitive/resistant up to stated concentration)
Description: (§5) The parental Ba/F3 cell line was cultured in RPMI 1640 medium with 10% FBS, L-glutamine, penicillin/streptomycin and 15% WEHI-conditioned media. Ba/F3 cell lines were maintained at densities of 0.5×10^6 to 1.5×10^6 per ml of media. FIG-ROS and SLC-ROS Ba/F3 lines were created by infecting the parental Ba/F3 with retrovirus expressing either human FIG-ROS-S (indicated FIG-ROS herein) or SLC-ROS-S (indicated SLC-ROS herein). Stable transfectant lines were sorted for GFP expression on a FACS Aria® flow cytometer. Cells were counted daily using Guava ViaCount® reagent and Guava Personal Cell Analysis® flow cytometer. […] Early passage NIH3T3 cells were infected with retrovirus expressing either FIG-ROS or SLC-ROS and sorted for GFP expression as described above for Ba/F3 cells. HCC78 cells were cultured in RPMI 1640 medium with 10% FBS, L-glutamine, and penicillin/streptomycin. This media is referred to as RPMI-10% FBS herein.
[…]. The Ba/F3 parental line was also tested. (O'Dwyer M E and Druker B J, Lancet Oncology 1, 207-211 (2000); Walters D K et al, Cancer Cell 10, 65-75 (2006); and Heukamp L C et al, Science Translational Medicine 4, 141ra191 (2012); […].

Ba/F3 FIG-ROS cells [1] = molecular target: T2, Ba/F3 FIG-ROS cells (Homo sapiens, UniProt P08922); assay: Apoptosis induction (Annexin V / 7-AAD), Ba/F3 FIG-ROS; format: cell-based; conditions: 15 nM, 48 hours
T2 construct: fused on or other part: GFP is co-expressed from an IRES in pMIG and is not fused; Q9HD26 (Golgi-associated PDZ and coiled-coil motif-containing protein)
T2 sequence (P08922 whole entry, change not shown, the tested form may be a part): as the sequence (P08922 whole entry, change not shown, the tested form may be a part) above
Description: as §2

Ba/F3 FIG-ROS cells [2] = molecular target: T2, Ba/F3 FIG-ROS cells; assay: Cell viability (MTS) assay, Ba/F3 FIG-ROS; format: cell-based; conditions: read-out: IC50 (50% growth inhibitory concentration); Ba/F3 FIG-ROS cells, 72 hours, MTS
Text: as §5, with “Ba/F3” for “The parental Ba/F3 cell line was cultured in RPMI 1640 medium with 10% FBS, L-glutamine, penicillin/streptomycin and 15% WEHI-conditioned media. Ba/F3”, “HCC78 cells were cultured in RPMI 1640 medium with 10% FBS, L-glutamine, and penicillin/streptomycin.” left out
The FIG-ROS-S (FIG-ROS) fusion protein has been reported in non-small cell lung cancers (NSCLC), glioblastomas, and cholangiocarcinomas.

FIG-ROS = FIG-ROS (Homo sapiens, UniProt P08922); assay: Immunoblot of Ba/F3 FIG-ROS lysates; format: cell-based; set-up: expressed in transfected cells; host or cells: Ba/F3 (A14), retroviral pMSCV-IRES-GFP; the other entry of the earlier key: GOPC (Q9HD26, Golgi-associated PDZ and coiled-coil motif-containing protein); conditions: Ba/F3 FIG-ROS cells, increasing amounts, immunoblot FIG. 1C
Chain of FIG-ROS (P08922 with tags, fused parts or gaps): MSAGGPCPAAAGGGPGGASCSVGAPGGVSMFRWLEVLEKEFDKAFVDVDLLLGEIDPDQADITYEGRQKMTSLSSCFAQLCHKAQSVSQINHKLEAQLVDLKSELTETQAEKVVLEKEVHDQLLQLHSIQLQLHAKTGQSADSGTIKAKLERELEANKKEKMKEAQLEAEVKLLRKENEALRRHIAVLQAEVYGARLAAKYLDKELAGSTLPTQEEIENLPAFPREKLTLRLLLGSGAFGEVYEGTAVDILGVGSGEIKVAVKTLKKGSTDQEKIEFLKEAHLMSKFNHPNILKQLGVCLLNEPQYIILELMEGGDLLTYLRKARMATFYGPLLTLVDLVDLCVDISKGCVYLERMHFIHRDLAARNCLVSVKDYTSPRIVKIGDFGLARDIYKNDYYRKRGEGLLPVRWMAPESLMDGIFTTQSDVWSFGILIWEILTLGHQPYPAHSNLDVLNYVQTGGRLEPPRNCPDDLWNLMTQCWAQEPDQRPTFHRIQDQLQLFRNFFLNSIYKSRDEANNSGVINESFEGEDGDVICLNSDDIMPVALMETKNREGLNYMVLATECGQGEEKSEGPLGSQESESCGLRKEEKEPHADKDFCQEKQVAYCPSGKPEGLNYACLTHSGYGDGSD
Description: as §3, §4

HCC78 cells = assay: Cell viability (MTS) assay, HCC78; format: cell-based, human; conditions: FIG. 6C
Description: as §5

Compound: C#Cc1cccc(Nc2ncnc3cc(OCCOC)c(OCCOC)cc23)c1 [erlotinib]
sensitivity of cell growth (PC9 cells): sensitive
sensitivity of cell growth (HCC4011 cells): sensitive

apoptosis induction (Ba/F3 SLC-ROS cells): induced apoptosis
autophosphorylation of SLC-ROS and ROS1-driven signaling (phospho-Shp2, phospho-ERK1/2) (SLC-ROS): dose dependent decrease
apoptosis induction (Ba/F3 FIG-ROS cells [1]): induced apoptosis
autophosphorylation of FIG-ROS and ROS1-driven signaling (phospho-Shp2, phospho-ERK1/2) (FIG-ROS): dose dependent decrease
Compound: Cn1c2ccccc2c2c3c(c4c5ccccc5n(CCC#N)c4c21)CNC3=O [Gö6976, 12-(2-cyanoethyl)-6,7,12,13-tetrahydro-13-methyl-5-oxo-5H-indolo(2,3-a)pyrrolo(3,4-c)-carbazole]
IC50 (Ba/F3 parental cells): > 2000 nM
GI50 (Ba/F3 FIG-ROS cells [2]): 1.4 nM

Compound: Cn1cc(-c2ccc3nnc(Sc4ccc5ncccc5c4)n3n2)cn1 [SGX-523]
HCC78 cell growth sensitivity to MET inhibitors (HCC78 cells): resistant
